Experimental data taken from PubChem BioAssay AID248 (DTP/NCI, 2004).
Several values for one entry are separate records, joined by “and”; a condition that tells them apart may be missing. Equal entries are not always repeated. Toxic doses and inconclusive results are not listed. No stated cut-off is given here; in the data, active means T/C of 150% or more; inactive means T/C below 125%. Peptide text beside a SMILES is read from it. * marks the point of attachment. Cbz = O=C(OCc1ccccc1)*

System: L1210 leukemia ip in BDF1 mice, survival T/C
Experiment: NCI In Vivo Anticancer Drug Screen. Data for tumor model L1210 Leukemia (intraperitoneal) in B6D2F1 (BDF1) mice
Settings: endpoint: mean survival time, higher = longer survival
In short: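 Mice bearing the transplanted tumor received compound or vehicle. Survival of the treated group was divided by that of the vehicle-treated control group to give the ratio.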

[1] = dose: 100.0 mg/kg/injection, schedule: Q01DX001 (ip), vehicle: other
[2] = dose: 100.0 mg/kg/injection, schedule: Q01DX009 (ip), vehicle: saline with Tween-80
[3] = dose: 200.0 mg/kg/injection, schedule: Q01DX001 (ip), vehicle: other
[4] = dose: 200.0 mg/kg/injection, schedule: Q01DX009 (ip), vehicle: saline with Tween-80
[5] = dose: 400.0 mg/kg/injection, schedule: Q01DX001 (ip), vehicle: other
[6] = dose: 400.0 mg/kg/injection, schedule: Q01DX009 (ip), vehicle: saline with Tween-80
[7] = dose: 50.0 mg/kg/injection, schedule: Q01DX001 (ip), vehicle: saline
[8] = dose: 50.0 mg/kg/injection, schedule: Q01DX009 (ip), vehicle: saline
[9] = dose: 50.0 mg/kg/injection, schedule: Q04DX003 (ip), vehicle: saline
[10] = dose: 100.0 mg/kg/injection, schedule: Q01DX001 (ip), vehicle: saline
[11] = dose: 100.0 mg/kg/injection, schedule: Q01DX009 (ip), vehicle: saline
[12] = dose: 100.0 mg/kg/injection, schedule: Q04DX003 (ip), vehicle: saline
[13] = dose: 100.0 mg/kg/injection, schedule: Q04DX003 (ip), vehicle: Klucel (hydroxypropylcellulose) (HPC)
[14] = dose: 200.0 mg/kg/injection, schedule: Q04DX003 (ip), vehicle: Klucel (hydroxypropylcellulose) (HPC)
[15] = dose: 400.0 mg/kg/injection, schedule: Q04DX003 (ip), vehicle: Klucel (hydroxypropylcellulose) (HPC)
[16] = dose: 200.0 mg/kg/injection, schedule: Q01DX001 (ip), vehicle: saline
[17] = dose: 400.0 mg/kg/injection, schedule: Q01DX001 (ip), vehicle: saline
[18] = dose: 25.0 mg/kg/injection, schedule: Q01DX009 (ip), vehicle: saline
[19] = dose: 100.0 mg/kg/injection, schedule: Q01DX001 (ip), vehicle: Klucel (hydroxypropylcellulose) (HPC)
[20] = dose: 200.0 mg/kg/injection, schedule: Q01DX001 (ip), vehicle: Klucel (hydroxypropylcellulose) (HPC)
[21] = dose: 400.0 mg/kg/injection, schedule: Q01DX001 (ip), vehicle: Klucel (hydroxypropylcellulose) (HPC)
[22] = dose: 50.0 mg/kg/injection, schedule: Q04DX002 (ip), vehicle: Klucel (hydroxypropylcellulose) (HPC)
[23] = dose: 100.0 mg/kg/injection, schedule: Q04DX002 (ip), vehicle: Klucel (hydroxypropylcellulose) (HPC)
[24] = dose: 200.0 mg/kg/injection, schedule: Q04DX002 (ip), vehicle: Klucel (hydroxypropylcellulose) (HPC)
[25] = dose: 100.0 mg/kg/injection, schedule: Q04DX003 (ip), vehicle: saline with Tween-80
[26] = dose: 400.0 mg/kg/injection, schedule: Q04DX003 (ip), vehicle: saline with Tween-80

Measured: T/C

CNS(=O)(=O)c1ccc(N)cc1
inactive: [1] 107 % of control | [2] 102 % of control | dose: 100.0 mg/kg/injection, schedule: Q04DX003 (ip), vehicle: other 97 % of control | [3] 104 % of control | [4] 110 % of control | dose: 200.0 mg/kg/injection, schedule: Q04DX003 (ip), vehicle: other 106 % of control | [5] 100 % of control | [6] 98 % of control | dose: 400.0 mg/kg/injection, schedule: Q04DX003 (ip), vehicle: other 108 % of control

COc1c2c(c3ccccc3c1OC(C)=O)OC(C)(C)CC2
inactive: dose: 100.0 mg/kg/injection, schedule: Q01DX001 (ip), vehicle: saline with Tween-80 88 % of control | dose: 200.0 mg/kg/injection, schedule: Q01DX001 (ip), vehicle: saline with Tween-80 92 % of control | dose: 400.0 mg/kg/injection, schedule: Q01DX001 (ip), vehicle: saline with Tween-80 90 % of control

Cc1ccc(S(=O)(=O)c2ccc(Cl)cc2)cc1
inactive: dose: 100.0 mg/kg/injection, schedule: Q04DX003 (ip), vehicle: acetone 110 % of control | dose: 200.0 mg/kg/injection, schedule: Q04DX003 (ip), vehicle: acetone 110 % of control | dose: 400.0 mg/kg/injection, schedule: Q04DX003 (ip), vehicle: acetone 109 % of control

O/C=C(\Cl)CCl
inactive: [7] 100 % of control | [8] 107 % of control and 108 % of control | dose: 50.0 mg/kg/injection, schedule: Q04DX002 (ip), vehicle: saline 97 % of control and 106 % of control | [9] 97 % of control | [10] 90 % of control | [11] 101 % of control and 104 % of control | [12] 106 % of control

S=C(c1ccc2ccccc2n1)N1CCOCC1
inactive: [13] 100 % of control | [14] 91 % of control | [15] 105 % of control

COc1cccc(C2N(Cc3ccc(OC)cc3OC)CCCN2Cc2ccc(OC)cc2OC)c1
inactive: [7] 89 % of control | [10] 96 % of control | [16] 91 % of control | [17] 96 % of control

COc1ccccc1/C=N/NC(=O)c1cccc2ccccc12
inactive: [17] 87 % of control

CC(C)C1C(=O)N2CCCC2C2(O)OC(NC(=O)C3C=C4c5cccc6[nH]cc(c56)CC4N(C)C3)(C(C)C)C(=O)N12 (centres undefined)
inactive: [18] 94 % of control | [8] 91 % of control | [9] 106 % of control | [11] 94 % of control | [12] 101 % of control | dose: 200.0 mg/kg/injection, schedule: Q04DX003 (ip), vehicle: saline 108 % of control | dose: 400.0 mg/kg/injection, schedule: Q04DX003 (ip), vehicle: saline 95 % of control

CCOc1nc(OCC)c2[nH]cnc2n1
inactive: [10] 101 % of control | [16] 96 % of control | [17] 102 % of control

CCCCCCCCCCCCOc1cccc(OCCCCCCCCCCCC)c1
inactive: [19] 92 % of control | [20] 87 % of control | [21] 87 % of control

C1CCN(CN2CCCC2)C1
inactive: dose: 25.0 mg/kg/injection, schedule: Q01DX001 (ip), vehicle: saline 96 % of control | [18] 92 % of control | dose: 25.0 mg/kg/injection, schedule: Q04DX003 (ip), vehicle: saline 98 % of control | [7] 94 % of control | [8] 92 % of control | [9] 105 % of control | [10] 97 % of control and 88 % of control | [12] 88 % of control

CCOP(=O)(OCC)c1ccc(N=Cc2cnc3nc(NC(C)=O)[nH]c(=O)c3n2)cc1
inactive: [1] 109 % of control | [3] 112 % of control | [5] 101 % of control

CC1(C)CC(C)(c2ccccc2)c2ccccc21 (centres undefined)
inactive: dose: 50.0 mg/kg/injection, schedule: Q01DX009 (ip), vehicle: Klucel (hydroxypropylcellulose) (HPC) 101 % of control | dose: 75.0 mg/kg/injection, schedule: Q04DX003 (ip), vehicle: Klucel (hydroxypropylcellulose) (HPC) 104 % of control | dose: 100.0 mg/kg/injection, schedule: Q01DX009 (ip), vehicle: Klucel (hydroxypropylcellulose) (HPC) 95 % of control | dose: 150.0 mg/kg/injection, schedule: Q04DX003 (ip), vehicle: Klucel (hydroxypropylcellulose) (HPC) 102 % of control | dose: 200.0 mg/kg/injection, schedule: Q01DX009 (ip), vehicle: Klucel (hydroxypropylcellulose) (HPC) 95 % of control | dose: 300.0 mg/kg/injection, schedule: Q04DX003 (ip), vehicle: Klucel (hydroxypropylcellulose) (HPC) 102 % of control

CN(C)C(=S)Oc1c(Cl)cc(S(=O)(=O)F)cc1Cl
inactive: dose: 12.5 mg/kg/injection, schedule: Q04DX002 (ip), vehicle: Klucel (hydroxypropylcellulose) (HPC) 98 % of control | dose: 25.0 mg/kg/injection, schedule: Q04DX002 (ip), vehicle: Klucel (hydroxypropylcellulose) (HPC) 105 % of control | [22] 109 % of control | [23] 94 % of control | [24] 100 % of control

Cc1cc(C)c(NS(=O)(=O)c2ccccc2)c(C)n1
inactive: [2] 98 % of control and 100 % of control | [25] 96 % of control | [4] 91 % of control and 92 % of control | dose: 200.0 mg/kg/injection, schedule: Q04DX003 (ip), vehicle: saline with Tween-80 100 % of control | [6] 96 % of control and 97 % of control | [26] 96 % of control

CC1=NN(c2ccccc2)C(=O)C1N=Nc1ccccc1S(=O)(=O)O (centres undefined)
inactive: [10] 96 % of control | [16] 94 % of control | [17] 102 % of control

CCN(CC)c1ccc(/C=C(/S)C(=O)O)cc1
inactive: [10] 89 % of control | [16] 92 % of control | [17] 92 % of control

CC(=O)Nc1nc(Cl)c(N)c(SCc2ccccc2)n1
inactive: [19] 98 % of control | [13] 91 % of control | [20] 98 % of control | [14] 92 % of control | [21] 98 % of control | [15] 92 % of control

CSc1ncnc2c1ncn2C1OC(CCC(N)=O)C(O)C1O (centres undefined)
inactive: [22] 98 % of control | [23] 101 % of control and 103 % of control | [24] 95 % of control | dose: 400.0 mg/kg/injection, schedule: Q04DX002 (ip), vehicle: Klucel (hydroxypropylcellulose) (HPC) 95 % of control

Cc1cccn2c(=O)cc(O)nc12
inactive: [7] 112 % of control | [10] 110 % of control | [16] 116 % of control | [17] 103 % of control

CSCCC(NC(=O)C(CO)NC(=O)OCc1ccccc1)C(=O)O (stereo not drawn) (Cbz-Ser-Met-OH; configuration not given here)
inactive: [13] 96 % of control | [14] 97 % of control | [15] 96 % of control

COC(=O)C(CSCSC)NC(=O)/C=C/c1ccc(C)cc1 (centres undefined)
inactive: [2] 102 % of control | [25] 93 % of control | [4] 101 % of control | [6] 91 % of control | [26] 91 % of control
